# In publication PMC5906549, “Cathelicidin-Derived Antimicrobial Peptides Inhibit Zika Virus Through Direct Inactivation and Interferon Pathway” (Frontiers in Immunology, 2018):
# Peptide text beside a SMILES is read from it.
# Tests used:
# Assay type in all cases: cell-based, Zika virus
# ZIKV strain MR766 [1] = assay: Viral attachment assay at 4°C in human fetal astrocytes; settings: astrocytes pre-incubated at 4°C half an hour, peptide along with ZIKV MOI 0.5 for 2 h at 4°C; normalized to 18-s rRNA; N = 3
# Procedure: Viral attachment assay was adapted from a previous publication ([36]) with modifications. Briefly, primary human fetal astrocytes were pre-incubated at 4°C for half an hour and then treated with AMPs along with ZIKV infection at the MOI of 0.5. After infection at 4°C for 2 h, cultures were washed with fresh medium for three times and RNA was isolated from whole cells. ZIKV RNA was determined through real-time RT-PCR. Data were normalized to 18-s rRNA and presented as fold change compared with the ZIKV group. One experimental group was subjected to trypsin digestion to remove any attached virions. This group served as a positive control for the viral attachment experiment.
# (A) Primary human fetal astrocytes were pre-incubated at 4°C for half an hour and then treated with antimicrobial peptides along with ZIKV infection at the MOI of 0.5 for 2 h. Cultures were then washed with fresh medium for three times. […] Data were normalized to 18-s rRNA and presented as fold change compared with the ZIKV group. The trypsin digestion group readily removes any attached virions and thus serves as positive control. […] After infection for 2 h, cultures were washed with fresh medium for three times and RNA was isolated from whole cells. ZIKV RNA was determined through real-time RT-PCR.
# ZIKV strain MR766 [2] = assay: ZIKV RNA in infected Vero cells, peptide pre-treatment (real-time RT-PCR); settings: for ZIKV RNA compared with untreated controls: peptide 2 µM, 2 h before ZIKV MOI 0.5, re-treated at 24 h, 48-h post-infection, RT-PCR normalized to GAPDH, N = 3
# Procedure: (§1) Human fetal astrocytes were derived from a single-cell isolation process of fetal brain tissues as previously described ([25], [26]). Briefly, dissociated brain tissue was incubated with 0.25% trypsin for 30 min, followed by neutralization with 10% fetal bovine serum (FBS), and further dissociated by trituration. The single-cell suspension was cultured as adherent cells in DMEM/F12 (Thermo Fisher Scientific, Waltham, MA, USA), supplemented with 10% FBS, penicillin (50 units/mL), and streptomycin (50 µg/mL) (Thermo Fisher Scientific). […] Vero cells (ATCC, CCL-81), an African green monkey kidney cell line, were maintained in Dulbecco’s Modified Eagle Medium (DMEM) with 5% FBS. Experiments with ZIKV were performed exclusively inside a BioSafety Level 2 (laboratory). All procedures utilized in this study were approved by the Institutional Biosafety Committee (IBC 16-05-013BL2) and followed biosafety level II practices as shown in National Institutes of health (NIH) Guideline Appendix G-II-B. ZIKV strain MR766 (Uganda, 1947) was obtained from ZeptoMetrix Corp., Buffalo, NY, USA, and propagated in Vero cells. ZIKV infection of the Vero cells and fetal astrocytes was previously characterized ([27]) and all infections in the current studies were at the MOI of 0.5.
# (§2) Total mRNA was isolated with TRIzol Reagent (Thermo Fisher Scientific) and RNeasy Mini Kit (QIAGEN Inc., Valencia, CA, USA) following the manufacturer’s recommendations. Two real-time RT-PCR methods were used for the current studies. First, SYBR Green-based RT-PCR assay was used to determine intracellular ZIKV RNA in Vero cells. For this assay, reverse transcription was performed using Verso cDNA synthesis Kit (Thermo Fisher Scientific) and 1 µg of total RNA in a 15-µL final volume. The RT-PCR analyses were performed using 7.5-µL SYBR Green PCR Master Mix (Thermo Fisher Scientific) with 0.5-µL cDNA, 1.5-µL H2O, 5.5-µL oligonucleotide primer pairs at 10 µM. […] GG-3. PCR program: 1, 50°C for 2 min; 2, 95°C for 2 min; 3, 95°C for 15 s; 4, specific annealing temperature for 15 s; 5, 72°C for 1 min. Steps 2–4 were repeated 40 times. All samples were amplified in triplicate for analysis. Relative ZIKV RNA levels were determined and standardized with a GAPDH internal control using comparative ΔΔCT method ([35]). Second, TaqMan-based RT-PCR assay was used to determine intracellular ZIKV RNA and other gene expressions in Figures 3–6 and extracellular ZIKV RNA in Figure 3. The TaqMan assay was performed in a StepOne^TM Real-Time PCR system (Thermo Fisher Scientific). Primers used for TaqMan real-time RT-PCR were all from the Thermo Fisher Scientific, which included ZIKV (forward sequence: 5-[…]-3, reverse sequence: 5- […]-3, and probe sequence: 5′-[…]-3), IFN-α2 (Hs00265051_s1), IFN-β1 (Hs01077958_s1), eukaryotic 18-s rRNA (Hs99999901_s1), β-actin (Hs99999903_m1), and GAPDH (Catalog number: 4310884E). Relative ZIKV mRNA levels were determined and standardized with a GAPDH or 18-s rRNA endogenous control using comparative ΔΔCT method ([35]). […] For ZIKV in supernatants, RNA was extracted from the supernatants through TRIzol™ LS Reagent (Thermo Fisher Scientific, 10296028) following the manufacturer’s manual. […] Quantitative genomic RNA from ZIKV (NR-1838DQ, ATCC) was used as a standard to calculate viral copies.
# ZIKV strain MR766 [3] = assay: Intracellular ZIKV RNA in infected human fetal astrocytes, peptide pre-treatment (real-time RT-PCR); settings: for Reduction of ZIKV RNA levels: astrocytes, 10 µM, at 48 h; for Intracellular ZIKV RNA, % of the untreated ZIKV group / Dose dependence of intracellular ZIKV RNA decrease: human fetal astrocytes, 48 h; for Intracellular ZIKV RNA, % of the untreated ZIKV group: 2 h pre-treatment, ZIKV MOI 0.5, re-treated at 24 h, normalized to GAPDH, N = 3; for Dose dependence of intracellular ZIKV RNA decrease: pre-treatment 0.4 to 10 µM, ZIKV MOI 0.5
# Procedure: as §1, §2
SMILES,ZIKV RNA levels in astrocytes at 4°C (viral attachment) (ZIKV strain MR766 [1]),ZIKV RNA compared with untreated controls (ZIKV strain MR766 [2]),Reduction of ZIKV RNA levels (ZIKV strain MR766 [3]),"Intracellular ZIKV RNA, % of the untreated ZIKV group (ZIKV strain MR766 [3]; peptide 2 µM) [%]","Intracellular ZIKV RNA, % of the untreated ZIKV group (ZIKV strain MR766 [3]; peptide 10 µM) [%]",Dose dependence of intracellular ZIKV RNA decrease (ZIKV strain MR766 [3]),"Dose dependence of ZIKV RNA decrease (ZIKV strain MR766 [2]; peptide 0.4, 2 and 10 µM, ZIKV MOI 0.5, 48-h post-infection)"
CC[C@H](C)[C@H](NC(=O)[C@H](CCCNC(=N)N)NC(=O)[C@H](CCC(N)=O)NC(=O)[C@@H](NC(=O)[C@@H](NC(=O)[C@H](CCCNC(=N)N)NC(=O)[C@H](CCCCN)NC(=O)[C@H](Cc1ccccc1)NC(=O)CN)[C@@H](C)CC)C(C)C)C(=O)N[C@@H](CCCCN)C(=O)N[C@@H](CC(=O)O)C(=O)N[C@@H](Cc1ccccc1)C(=O)N[C@@H](CC(C)C)C(=O)N[C@@H](CCCNC(=N)N)C(=O)N[C@@H](CC(N)=O)C(=O)N[C@@H](CC(C)C)C(=O)N[C@H](C(N)=O)C(C)C [GF-17] (H-GFKRIVQRIKDFLRNLV-NH2; N-terminus and C-terminus assumed),did not alter the ZIKV RNA levels,significantly decreased ZIKV RNA,over 99%,46,1,decreased intracellular ZIKV RNA in a dose-dependent manner,–
CC[C@H](C)[C@H](NC(=O)[C@H](CCCCN)NC(=O)[C@H](CCCCN)NC(=O)[C@H](Cc1ccccc1)NC(=O)[C@H](CC(C)C)NC(=O)[C@H](CCCCN)NC(=O)[C@H](CCCCN)NC(=O)[C@H](Cc1ccccc1)NC(=O)[C@H](CCCCN)NC(=O)[C@H](CCCCN)NC(=O)[C@H](CCCNC(=N)N)NC(=O)[C@H](Cc1ccccc1)NC(=O)[C@H](CCCNC(=N)N)NC(=O)[C@H](CCCCN)NC(=O)[C@H](Cc1ccccc1)NC(=O)[C@H](CCCNC(=N)N)NC(=O)CN)C(=O)N[C@@H](CO)C(=O)O [BMAP-18] (H-GRFKRFRKKFKKLFKKIS-OH; N-terminus and C-terminus assumed),did not alter the ZIKV RNA levels,significantly decreased ZIKV RNA,> 95%,15,4,decreased intracellular ZIKV RNA in a dose-dependent manner,–
"CC[C@H](C)[C@H](NC(=O)[C@H](CCCNC(=N)N)NC(=O)[C@H](CCC(N)=O)NC(=O)[C@@H](NC(=O)[C@@H](NC(=O)[C@@H](N)CCCNC(=N)N)[C@@H](C)CC)C(C)C)C(=O)N[C@@H](CCCCN)C(=O)N[C@@H](CC(=O)O)C(=O)N[C@@H](Cc1ccccc1)C(=O)N[C@@H](CC(C)C)C(=O)O [RI-10, reference compound] (H-RIVQRIKDFL-OH; N-terminus and C-terminus assumed)",did not alter the ZIKV RNA levels,–,–,–,–,"but not RI-10, decreased intracellular ZIKV RNA",except RI-10 showed dose-dependent decrease of ZIKV RNA
